Measurements published in patent US11479538B2, “Tetrazolone-substituted dihydropyridinone MGAT2 inhibitors” (BRISTOL-MYERS SQUIBB COMPANY, priority 2014, dated 2022).

Target: human MGAT-2 (Homo sapiens (Human), UniProt Q3SYC2)
Assay: MGAT LCMS Assay
Format: biochemical
Settings: human recombinant MGAT-2 membranes expressed in Sf9 cells; LC/MS readout of diolein; read-out: h-MGAT LCMS IC50
Method: The MGAT enzyme reactions were performed in Corning FALCON® 96-well polypropylene plates, in a total volume of 60 μL of 50 mM potassium phosphate buffer pH 7.4, containing a final concentration of 100 μM 2-oleoylglycerol, 15 μM oleoyl-coenzyme A and […] human or mouse MGAT-2 or […] rat recombinant MGAT-2 membranes expressed in Sf9 cells. Assay plates were run through a fully automated robotics system and shaken for 5 seconds every minute for a total 10 minutes. The reactions were then quenched with 120 μL of ice cold methanol containing 1 μg/mL 1,2-distearoyl-rac-glycerol as the internal standard. Plates were shaken for 2 minutes and spun down to remove protein precipitation. After the spin, samples were transferred to LC/MS compatible PCR plates. For LC/MS analysis, a ThermoFisher Surveyor pump, utilizing a Waters SYMMETRY® C8, 50×2.1 mm column, was used for the chromatography of enzyme products. The buffer system consists of 0.1% formic acid in water with a mobile phase consisting 0.1% formic acid in methanol. The shallow gradient is 90-100% mobile phase in 0.2 min with a total run time of 2.3 min. […]
The exemplified Examples disclosed below were tested in the MGAT2 in vitro assays described above and were found having MGAT2 inhibitory activity. Table 1 below lists human MGAT2 IC50 values measured for the following examples.

Chain of human MGAT-2 (Q3SYC2 whole entry): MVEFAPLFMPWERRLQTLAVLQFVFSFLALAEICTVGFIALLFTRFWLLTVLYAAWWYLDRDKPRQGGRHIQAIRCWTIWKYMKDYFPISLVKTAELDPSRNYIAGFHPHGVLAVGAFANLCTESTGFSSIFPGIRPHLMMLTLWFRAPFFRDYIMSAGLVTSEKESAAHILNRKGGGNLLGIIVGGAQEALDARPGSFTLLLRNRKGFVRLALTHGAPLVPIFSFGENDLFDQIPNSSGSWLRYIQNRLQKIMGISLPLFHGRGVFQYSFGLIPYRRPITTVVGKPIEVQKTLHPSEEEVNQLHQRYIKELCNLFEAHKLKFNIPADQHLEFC

O=C1N[C@@](c2ccc(OCCCC(F)(F)F)cc2F)(C(F)(F)F)CC(c2ncc(C3CC3)s2)=C1n1nn[nH]c1=O [Example 22, (S)-4-(5-cyclopropylthiazol-2-yl)-6-(2-fluoro-4-(4,4,4-trifluorobutoxy)phenyl)-3-(5-oxo-4,5-dihydro-1H-tetrazol-1-yl)-6-(trifluoromethyl)-5,6-dihydropyridin-2(1H)-one]
IC50: 2 nM
